Assay results from ChEMBL document CHEMBL5303304, “EUbOPEN Chemogenomics Library - IncuCyte” (2023).
Numbered stars: 1 amine (or outer) side, 2 acyl side, 3 side chain; on linkers, the order of the positions; unused ones are H or OH. Bridge positions count the residues as written; N and C are the ends. Square brackets hold non-standard residues; d marks the D form. Peptide text beside a SMILES is read from it. I, II: the chains in the order shown. Hexamethylenediamine = C(CCCN[*:2])CCN[*:1]; Dip = N[C@H](C(=O)O)C(c1ccccc1)c1ccccc1; Chg = N[C@H](C(=O)O)C1CCCCC1; NMeA = CN[C@@H](C)C(=O)O

Key:
Type in all cases: toxicity, cell-based
U2OS = test: Incucyte cell viability with U2OS; conditions: human, 10 µM, compound concentration 10 uM
Fibroblast = test: Incucyte cell viability with human fibroblast; conditions: 10 µM, compound concentration 10 uM
HEK-293T = test: Incucyte cell viability with HEK293T; conditions: human, 10 µM, compound concentration 10 uM
Further: unitless GR value; below 1 slowed growth and below 0 cell loss.

Compound	Growth Rate (U2OS; 6 h, replicate number 1)	Growth Rate (U2OS; 6 h, replicate number 2)	Growth Rate (U2OS; 12 h, replicate number 1)	Growth Rate (U2OS; 12 h, replicate number 2)	Growth Rate (U2OS; 18 h, replicate number 1)	Growth Rate (U2OS; 18 h, replicate number 2)	Growth Rate (U2OS; 24 h, replicate number 1)	Growth Rate (U2OS; 24 h, replicate number 2)	Growth Rate (Fibroblast; 0 h, replicate number 2)	Growth Rate (Fibroblast; 12 h, replicate number 2)	Growth Rate (Fibroblast; 18 h, replicate number 1)	Growth Rate (Fibroblast; 18 h, replicate number 2)	Growth Rate (Fibroblast; 24 h, replicate number 1)	Growth Rate (Fibroblast; 24 h, replicate number 2)	Growth Rate (HEK-293T; 6 h, replicate number 2)	Growth Rate (HEK-293T; 12 h, replicate number 2)	Growth Rate (HEK-293T; 18 h, replicate number 2)	Growth Rate (HEK-293T; 24 h, replicate number 2)	Growth Rate (HEK-293T; 0 h, replicate number 1)	Growth Rate (HEK-293T; 0 h, replicate number 2)	also measured
CN[C@@H](C)C(=O)N[C@H](C(=O)N1CCC[C@H]1C(=O)N[C@H](C(=O)NCCCCCCNC(=O)[C@@H](NC(=O)[C@@H]1CCCN1C(=O)[C@@H](NC(=O)[C@H](C)NC)C1CCCCC1)C(c1ccccc1)c1ccccc1)C(c1ccccc1)c1ccccc1)C1CCCCC1 (I: H-[NMeA][Chg]P[Dip] / II: H-[NMeA][Chg]P[Dip]; linker I:C-II:C via Hexamethylenediamine)	-0.4	-0.46	-0.41	-0.63	-0.25	-0.21	-0.22	-0.21	-0.82	0.74	0.47	0.49	0.5	0.33	-0.41	-0.4	-0.31	-0.25	–	–	Growth Rate (U2OS; 0 h, replicate number 2): -0.47; Growth Rate (Fibroblast; 12 h, replicate number 1): 0.82; Growth Rate (HEK-293T; 6 h, replicate number 1): -0.33; Growth Rate (HEK-293T; 12 h, replicate number 1): -0.42; Growth Rate (HEK-293T; 18 h, replicate number 1): -0.3; Growth Rate (HEK-293T; 24 h, replicate number 1): -0.23
O=C(CNCc1cc2ccccc2[nH]1)N[C@H]1CC[C@@H](c2nc3ccccc3[nH]2)CC1	0.65	1	0.55	–	0.82	–	0.8	–	0.8	0.69	0.78	–	0.78	–	0.27	0.76	0.77	0.89	-0.1	-0.87	Growth Rate (U2OS; 0 h, replicate number 1): -0.05; Growth Rate (Fibroblast; 6 h, replicate number 1): 0.9; Growth Rate (Fibroblast; 6 h, replicate number 2): 0.7; Growth Rate (Fibroblast; 12 h, replicate number 1): 0.79
O=S(=O)(Nc1nnc2cc(OCC34CC5CC(CC(C5)C3)C4)c(C3CC3)cn12)C1CC1	–	0.37	0.94	0.76	–	0.91	0.94	0.89	–	0.16	0.51	0.43	–	0.63	–	–	–	–	0.55	0.41	Growth Rate (Fibroblast; 6 h, replicate number 1): 0.92; Growth Rate (Fibroblast; 6 h, replicate number 2): -1; Growth Rate (Fibroblast; 12 h, replicate number 1): -1; Growth Rate (HEK-293T; 6 h, replicate number 1): 0.8
Cc1cc(-c2cc3ncccc3c(OC[C@H]3CCCNC3)n2)ccc1N(C)C.O=C(O)C(F)(F)F	–	0.47	0.77	0.26	0.28	0.19	0.47	0.16	-0.85	–	–	–	0.79	0.85	-0.53	-0.44	-0.28	-0.18	–	-1	Growth Rate (Fibroblast; 0 h, replicate number 1): -0.49; Growth Rate (HEK-293T; 6 h, replicate number 1): -0.57; Growth Rate (HEK-293T; 12 h, replicate number 1): -0.47; Growth Rate (HEK-293T; 18 h, replicate number 1): -0.34; Growth Rate (HEK-293T; 24 h, replicate number 1): -0.25
N=C(N)NCCC[C@@H](NC(=O)C(c1ccccc1)c1ccccc1)C(=O)NCc1ccc(CNC(N)=O)cc1.O=C(O)C(F)(F)F	0.44	–	0.7	0.87	0.92	0.99	0.86	–	0.49	0.86	–	0.94	–	0.91	–	0.76	0.96	0.9	0.56	–	Growth Rate (U2OS; 0 h, replicate number 1): 0.07; Growth Rate (Fibroblast; 0 h, replicate number 1): -1; Growth Rate (Fibroblast; 6 h, replicate number 1): 0.82
C[S+](C)[O-] [DIMETHYL SULFOXIDE]	0.89	0.27	–	0.44	–	0.5	–	0.44	–	0.83	0.87	–	–	–	0.48	0.78	0.83	0.69	0.12	0.07	Growth Rate (U2OS; 0 h, replicate number 2): 0.1; Growth Rate (Fibroblast; 6 h, replicate number 1): 0.99; Growth Rate (Fibroblast; 6 h, replicate number 2): 0.8; Growth Rate (HEK-293T; 12 h, replicate number 1): 0.83; Growth Rate (HEK-293T; 18 h, replicate number 1): 0.88; Growth Rate (HEK-293T; 24 h, replicate number 1): 0.9
CC1=NC(C=C2C(=O)Nc3ccc(F)cc32)=C(C)C1C(=O)NCC(O)CN1CCOCC1 (centres undefined)	–	–	–	–	–	–	–	–	–	–	–	–	–	–	–	–	–	0.99	0.76	-0.67	Growth Rate (U2OS; 0 h, replicate number 2): -0.99; Growth Rate (Fibroblast; 0 h, replicate number 1): 0.4; Growth Rate (Fibroblast; 6 h, replicate number 1): -0.99
CC1(C)CCN(C(=O)C2CN(c3c4c(nc5ccnn35)CCNCC4)C2)C1.O=C(O)C(F)(F)F	0.78	–	–	–	–	–	–	–	–	0.82	–	0.86	0.98	0.96	–	–	–	–	–	0.61	Growth Rate (HEK-293T; 6 h, replicate number 1): -0.5; Growth Rate (HEK-293T; 12 h, replicate number 1): 0.45; Growth Rate (HEK-293T; 18 h, replicate number 1): 0.87; Growth Rate (HEK-293T; 24 h, replicate number 1): 0.96
CC(C)CNc1nc(N2CCN(CC3CCCOC3)CC2)ncc1C(=O)NCc1ccccc1 (centres undefined)	0.3	0.72	0.83	0.63	0.99	0.76	–	0.79	–	-0.95	-0.97	-0.81	-0.8	-0.64	0.95	–	–	–	0.68	–	Growth Rate (Fibroblast; 0 h, replicate number 1): -0.99; Growth Rate (Fibroblast; 6 h, replicate number 2): -1; Growth Rate (HEK-293T; 6 h, replicate number 1): 0.81
Oc1cc2c(cc1O)CN(C(=S)NCCc1ccc(Cl)cc1)CCC2 [CAPSAZEPINE]	–	0.57	0.86	0.84	0.88	0.75	0.77	0.93	-0.78	-0.04	-0.47	0.44	–	0.57	-0.37	0.11	0.51	0.55	–	–	Growth Rate (U2OS; 0 h, replicate number 2): -0.38; Growth Rate (Fibroblast; 6 h, replicate number 2): -0.98; Growth Rate (HEK-293T; 6 h, replicate number 1): -0.22; Growth Rate (HEK-293T; 12 h, replicate number 1): 0.04; Growth Rate (HEK-293T; 18 h, replicate number 1): 0.54
O=C(Nc1snnc1C(=O)Nc1ccc(N2CCCC2)cc1)c1cncc(C(F)(F)F)c1	–	0.89	-0.58	0.81	–	–	–	–	-0.64	0.11	–	0.43	0.96	0.59	0.54	0.8	0.86	0.9	0.43	0.78	Growth Rate (U2OS; 0 h, replicate number 1): -1; Growth Rate (Fibroblast; 0 h, replicate number 1): -1; Growth Rate (Fibroblast; 6 h, replicate number 2): 0.26; Growth Rate (HEK-293T; 12 h, replicate number 1): 0.99; Growth Rate (HEK-293T; 18 h, replicate number 1): 0.92; Growth Rate (HEK-293T; 24 h, replicate number 1): 0.91
